Key:
Assay type in all cases: functional, cell-based
[1] = test system: N9; assay: Compound was tested for the inhibition of total beta-Amyloid Production in N9 cell line expressing beta-APP (wascreated by transfecting the human cDNA encoding beta-APP 695) by using immunoprecipitation assay
[2] = test system: N9; assay: Compound was tested for the inhibition of total beta-Amyloid Production in N9 cell line expressing beta-APP (wascreated by transfecting the human cDNA encoding beta-APP 695) by using enzyme-linked immunosorbent assay
[3] = test system: N9; assay: Compound was tested for the inhibition of 1-42 beta-Amyloid Production in N9 cell line expressing beta-APP (wascreated by transfecting the human cDNA encoding beta-APP 695) by using immunoprecipitation assay
[4] = test system: N9; assay: Compound was tested for the inhibition of 1-40 beta-Amyloid Production in N9 cell line expressing beta-APP (wascreated by transfecting the human cDNA encoding beta-APP 695) by using immunoprecipitation assay
[5] = test system: N9; assay: Compound was tested for the inhibition of beta-Amyloid Production in N9 cell line expressing beta-APP; conditions: Homo sapiens

IC50 [1]: 15 µM
IC50 [2]: 10 µM
IC50 [3]: > 50 µM
IC50 [4]: 22 µM
IC50 [5]: 9.6 µM
Structure (SMILES): CCC(C)[C@H](NC(=O)/C=C/c1cc(OC)cc(OC)c1)C(=O)N[C@H](C=O)CC(C)C (stereo not given in full)

Source: ChEMBL document CHEMBL1132400, “A combinatorial approach to the identification of dipeptide aldehyde inhibitors of beta-amyloid production” (J Med Chem, 1999)
